Series [1] concerns Rattus norvegicus. Put plainly: Diuretic activity in po dosed albino Wistar-TNO rat assessed as 100% increase in urinary volume measured for 5 hrs. Type of series: functional, Urine.
The species entered for series [2] is Rattus norvegicus. Put plainly: Ratio of furosemide ED200 to compound ED200 for diuretic activity in albino Wistar-TNO rat. Type of series: functional, Urine.
The test system of series [3] is Rattus norvegicus. Put plainly: Diuretic activity in po dosed albino Wistar-TNO rat assessed as rapid onset of action. Type of series: functional, organism-based. The note with it: Urine.
Series [4] relates to Rattus norvegicus. Put plainly: Diuretic activity in po dosed albino Wistar-TNO rat assessed as time duration of action. Type of series: functional, Urine.
Series [5] deals with Rattus norvegicus. The experiment in a line: Natriuretic activity in po dosed albino Wistar-TNO rat assessed as Na/K ratio. The series is classed as functional, organism-based.
Series [6] is filed under the species Rattus norvegicus. Put plainly: Diuretic activity in experimentally-induced alkalosis rat model. Type of series: functional, organism-based. To be noted: Urine.
For series [7], the species on record is Rattus norvegicus. The experiment in a line: Diuretic activity in experimentally-induced acidosis rat model. Type of series: functional, organism-based. To be noted: Urine.
Series [8] concerns Rattus norvegicus. Put plainly: Diuretic activity in experimentally-induced oedema rat model. Type of series: functional, organism-based. The note with it: Urine.
Series [9] relates to Rattus norvegicus. The experiment in a line: Diuretic activity in po dosed albino Wistar-TNO rat measured after chronic administration. Type of series: functional, organism-based. To be noted: Urine.
Series [10] deals with Rattus norvegicus. Put plainly: Toxicity in po dosed albino Wistar-TNO rat at 50 times effective dose for diuresis measured after chronic administration. The series is classed as organism-based. The note with it: in vivo.
Series [11] is filed under the species Mus musculus. The experiment in a line: Diuretic activity in mouse. The series is classed as functional, organism-based. To be noted: Urine.
For series [12], the system named is Hamster. The experiment in a line: Diuretic activity in hamster. The series is classed as functional, organism-based. To be noted: Cricetinae; Urine.
Series [13] relates to Rhesus monkey. The experiment in a line: Diuretic activity in rhesus monkey. To be noted: Macaca mulatta; Urine. Type of series: functional, organism-based.
The species entered for series [14] is Canis familiaris. The experiment in a line: Natriuretic activity in non-loaded Beagle dog. Type of series: functional, organism-based. The note with it: Canis lupus familiaris.
For series [15], the system named is Rattus norvegicus. The experiment in a line: Diuretic activity in po dosed albino Wistar-TNO rat assessed as increase in urinary volume measured for 5 hrs. The series is classed as functional, organism-based. The note with it: Urine.
The subject of series [16] is Rattus norvegicus. The experiment in a line: Toxicity in po dosed albino Wistar-TNO rat assessed as uric acid excretion. Type of series: organism-based. To be noted: in vivo.
Series [17] deals with Rattus norvegicus. Put plainly: Diuretic activity in albino Wistar-TNO rat assessed as increase in urinary volume at 50 mg/kg, po measured for 5 hrs. Type of series: functional, organism-based. The arrangement: dose 50 mg/kg. The note with it: Urine.

Active and inactive are the calls of the source. No cut-off for these calls is given here.

13 compounds from ChEMBL document CHEMBL3272074, “A new class of diuretics with the 1,4-dioxino(2,3-g)quinolone structure” (J Med Chem, 1976) can be followed below.

Regarding `CCOCC1COc2c(cc3[nH]cc(C(=O)OCC)c(=O)c3c2Cl)O1` (stereo not given) [QUINCARBATE], in series [1], the ED200 came out at 0.08 mg/kg. Also, the Ratio in series [2] was 200. Further, the outcome in series [3], in series [5], in series [6], in series [7], in series [8] and in series [9] was Active. Also, the result in series [13] and in series [14] was Active. Also, the Time in series [4] was found to be 8 h. Also, the Activity result in series [10] was “Non-toxic”; in [15], “Dose-dependent effect”; in series [16], “Toxic”. Moreover, the result in series [11] and in series [12] was inactive.

For `CCOCC1COc2c(cc3[nH]cc(C(=O)O)c(=O)c3c2Cl)O1` (stereo not given), in series [1], the ED200 came to 0.14 mg/kg. Further, in series [2], the Ratio is given as 200. The outcome in [3], in [5], in series [6], in series [7], in series [8] and in series [9] was Active. Also, the result in series [13] and in series [14] was Active. In series [4], the Time amounted to 8 h. Moreover, the Activity entry in [10] is “Non-toxic”; in series [15] it was “Dose-dependent effect”; in series [16] it was “Toxic”. The outcome in series [11] and in series [12] was inactive.

Consider `CCOCC1COc2cc3c(=O)c(C(=O)OCC)c[nH]c3cc2O1` (stereo not given), for which the ED200 in series [1] was 3.8 mg/kg.

Turning to `CCOCC1COc2cc3c(=S)c(C(=O)OCC)c[nH]c3cc2O1` (stereo not given), the ED200 in series [1] was determined as 13 mg/kg.

Regarding `CCOCC1COc2c(cc3[nH]cc(C(=O)OCC)c(=O)c3c2[N+](=O)[O-])O1` (stereo not given), the ED200 in [1] turned out to be 3 mg/kg.

For the compound `CCOCC1COc2c(cc3[nH]cc(C(=O)OCC)c(=O)c3c2C(F)(F)F)O1` (stereo not given), the ED200 in [1] is 0.5 mg/kg.

Regarding `CCOCC1COc2c(cc3[nH]cc(C(=O)OCC)c(=O)c3c2Br)O1` (stereo not given), in series [1], the ED200 is 0.4 mg/kg.

`NS(=O)(=O)c1cc(C(=O)O)c(NCc2ccco2)cc1Cl` [FUROSEMIDE]: in series [1], the ED200 amounted to 28 mg/kg. Also, in [15], the Activity entry was “Dose-dependent effect”.

Regarding `CCOCC1COc2c(c(Cl)c3[nH]cc(C(=O)OCC)c(=O)c3c2Cl)O1` (stereo not given), the outcome in [17] was inactive.

For the compound `CCOCC1COc2c(cc3[nH]cc(C(=O)OCC)c(=N)c3c2Cl)O1` (stereo not given), in [1], the ED200 worked out at 2 mg/kg.

On to `CCOCC1COc2cc3[nH]cc(C(=O)OCC)c(=O)c3c(Cl)c2O1` (stereo not given), for which the ED200 in [1] came out at 2.5 mg/kg.

On to `NS(=O)(=O)c1cc2c(cc1Cl)N=CNS2(=O)=O` [CHLOROTHIAZIDE], for which the ED200 in series [1] amounted to 30 mg/kg. The Activity entry in [15] was “Dose-dependent effect”.

With `CCOCC1COc2cc3c(=O)c(C(=O)OCC)c[nH]c3c(Cl)c2O1` (stereo not given), in series [17], the outcome was inactive.
